Source: the NIST ThermoML archive (doi:10.1021/je700705d)
Numbers after ± are expanded uncertainties.

Assays:
[1] = refractive index (Na D-line) (dimensionless); details: 293.15 K; 101.33 kPa; Liquid; Standard Abbe refractometry
[2] = Liquid; Ebulliometric method (Recirculating still)

Row | Compound | refractive index [1] | Normal boiling temperature [2] [°C]
1 | CC(O)C(C)O (centres undefined) [2,3-butanediol] | 1.4375 ± 0.0007 | 181.06 ± 0.2
2 | CCCCOC(C)=O [butyl ethanoate] | 1.3941 ± 0.0007 | 125.96 ± 0.2
